# Laboratory results reported in patent US10131652B2, “Pyrimidinyloxy benzene derivatives as herbicides” (E. I. DU PONT DE NEMOURS AND COMPANY, priority 2014, dated 2018).
# Like-named read-outs stand apart in the source and are kept apart here.
# Assays:
# Type in all cases: in vivo
# [1] = system: Italian ryegrass (Lolium multiflorum); test: Test B pre-/postemergence plant response
# Procedure, shortened: (§1)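 Greenhouse pots, loam/sand soil; compound formulated with surfactant in non-phytotoxic solvent. Preemergence soil spray and postemergence spray at 1–2 leaf stage run simultaneously. Visual injury, 0–100, about 10 days post-treatment.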
# kochia (Kochia scoparia) = test: Test B pre-/postemergence plant response
# Procedure, shortened: as §1
# [2] = system: ragweed (common ragweed, Ambrosia elatior); test: Test B pre-/postemergence plant response
# Procedure, shortened: as §1
# [3] = system: barnyardgrass (Echinochloa crus-galli); test: Test C flooded paddy test plant response; details: Echinochloa crus-galli; Flood, 250 g ai/ha; scale of 0 to 100 where 0 is no effect and 100 is complete control; 13 to 15 days; read-out: Barnyardgrass plant response rating
# Procedure, shortened: (§2)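 Greenhouse paddy assay, 13–15 days. Treatment into 3 cm floodwater over 2-leaf plants; visual 0–100 rating against controls.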
# [4] = system: small-flower umbrella sedge (Cyperus difformis); test: Test C flooded paddy test plant response; details: Cyperus difformis; Flood, 250 g ai/ha; scale of 0 to 100 where 0 is no effect and 100 is complete control; 13 to 15 days; read-out: Sedge, Umbrella plant response rating
# Procedure, shortened: as §2
# [5] = system: ducksalad (Heteranthera limosa); test: Test C flooded paddy test plant response; details: Heteranthera limosa; Flood, 250 g ai/ha; scale of 0 to 100 where 0 is no effect and 100 is complete control; 13 to 15 days; read-out: Ducksalad plant response rating
# Procedure, shortened: as §2
# rice (Oryza sativa) = test: Test C flooded paddy test plant response; details: Oryza sativa; Flood, 250 g ai/ha; scale of 0 to 100 where 0 is no effect and 100 is complete control; 13 to 15 days; read-out: Rice plant response rating
# Procedure, shortened: as §2
# [6] = system: pigweed (Amaranthus retroflexus); test: Test D pre-/postemergence plant response; details: Amaranthus retroflexus; for pest or weed control at 31 g/ha: 31 g ai/ha; for pest or weed control at 62 g/ha: 62 g ai/ha; for pest or weed control at 125 g/ha: 125 g ai/ha
# Procedure, shortened: (§3)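 Seeds sown in loam–sand blend got preemergence sprays of test chemicals in a non-phytotoxic solvent with surfactant; postemergence sprays went on plants at 1- to 4-leaf stage (2 to 18 cm) in peat/vermiculite medium. After 13 to 15 days in greenhouse, visual injury versus controls scored 0 (no effect) to 100 (complete control).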
# [7] = system: blackgrass (Alopecurus myosuroides); test: Test D pre-/postemergence plant response; details: Alopecurus myosuroides; for pest or weed control at 16 g/ha: 16 g ai/ha; for pest or weed control at 31 g/ha: 31 g ai/ha; for pest or weed control at 62 g/ha: 62 g ai/ha; for pest or weed control at 125 g/ha: 125 g ai/ha
# Procedure, shortened: as §3
# [8] = system: barnyardgrass (Echinochloa crus-galli); test: Test D pre-/postemergence plant response; details: Echinochloa crus-galli; for pest or weed control at 16 g/ha: 16 g ai/ha; for pest or weed control at 31 g/ha: 31 g ai/ha; for pest or weed control at 62 g/ha: 62 g ai/ha; for pest or weed control at 125 g/ha: 125 g ai/ha
# Procedure, shortened: as §3
# [9] = system: velvetleaf (Abutilon theophrasti); test: Test D pre-/postemergence plant response; details: Abutilon theophrasti; for pest or weed control at 31 g/ha: 31 g ai/ha; for pest or weed control at 62 g/ha: 62 g ai/ha; for pest or weed control at 125 g/ha: 125 g ai/ha
# Procedure, shortened: as §3
# [10] = system: johnsongrass (Sorghum halepense); test: Test D pre-/postemergence plant response; details: Sorghum halepense; for pest or weed control at 31 g/ha: 31 g ai/ha; for pest or weed control at 62 g/ha: 62 g ai/ha; for pest or weed control at 125 g/ha: 125 g ai/ha
# Procedure, shortened: as §3
# [11] = system: giant foxtail (Setaria faberii); test: Test D pre-/postemergence plant response; details: Setaria faberi; for pest or weed control at 16 g/ha: 16 g ai/ha; for pest or weed control at 31 g/ha: 31 g ai/ha; for pest or weed control at 62 g/ha: 62 g ai/ha; for pest or weed control at 125 g/ha: 125 g ai/ha
# Procedure, shortened: as §3
# [12] = system: oilseed rape (Brassica napus); test: Test D pre-/postemergence plant response; details: Brassica napus; for plant injury at 31 g/ha: 31 g ai/ha
# Procedure, shortened: as §3
# [13] = 31 g ai/ha, Preemergence, 0 to 100 scale where 0 is no effect and 100 is complete control
# [14] = 125 g ai/ha, postemergence, 0 to 100 scale, 0 no effect, 100 complete control
# [15] = Postemergence, 31 g ai/ha, 0 to 100 scale (0 no effect, 100 complete control)
# [16] = Preemergence, 125 g ai/ha, 0 to 100 scale (0 no effect, 100 complete control)
# [17] = post-emergence, Postemergence, scale 0 to 100, 0 no effect, 100 complete control, read-out: Plant response rating, Pigweed
# [18] = pre-emergence, Preemergence, scale 0 to 100 (0 no effect, 100 complete control), read-out: Plant response rating, Pigweed
# [19] = post-emergence, Postemergence, scale 0 to 100 (0 no effect, 100 complete control), read-out: Blackgrass plant response rating
# [20] = post-emergence, Postemergence, scale 0 to 100, 0 no effect, 100 complete control, read-out: Plant response rating, Blackgrass
# [21] = pre-emergence, Preemergence, scale 0 to 100 (0 no effect, 100 complete control), read-out: Plant response rating, Blackgrass
# [22] = post-emergence, Postemergence, scale 0 to 100 (0 no effect, 100 complete control), read-out: Barnyardgrass plant response rating
# [23] = post-emergence, Postemergence, scale 0 to 100, 0 no effect, 100 complete control, read-out: Plant response rating, Barnyardgrass
# [24] = pre-emergence, Preemergence, scale 0 to 100 (0 no effect, 100 complete control), read-out: Plant response rating, Barnyardgrass
# [25] = post-emergence, Postemergence, scale 0 to 100, 0 no effect, 100 complete control, read-out: Plant response rating, Velvetleaf
# [26] = pre-emergence, Preemergence, scale 0 to 100 (0 no effect, 100 complete control), read-out: Plant response rating, Velvetleaf
# [27] = post-emergence, Postemergence, scale 0 to 100, 0 no effect, 100 complete control, read-out: Plant response rating, Johnsongrass
# [28] = pre-emergence, Preemergence, scale 0 to 100 (0 no effect, 100 complete control), read-out: Plant response rating, Johnsongrass
# [29] = post-emergence, Postemergence, scale 0 to 100 (0 no effect, 100 complete control), read-out: Foxtail, Giant plant response rating
# [30] = post-emergence, Postemergence, scale 0 to 100, 0 no effect, 100 complete control, read-out: Plant response rating, Foxtail, Giant
# [31] = pre-emergence, Preemergence, scale 0 to 100 (0 no effect, 100 complete control), read-out: Plant response rating, Foxtail, Giant
structure (smiles),measurement,setting,value
"Fc1cccc(Oc2ncc(Br)cn2)c1-c1cc(C(F)F)no1 [Compound 145, 5-bromo-2-[2-[3-(difluoromethyl)-5-isoxazolyl]-3-fluorophenoxy]pyrimidine]","Plant response rating, Ryegrass, Italian",[1]; [13],0
same,"Plant response rating, Ryegrass, Italian",[1]; [14],80
same,"Plant response rating, Ryegrass, Italian",[1]; [15],20
same,"Ryegrass, Italian plant response rating",[1]; [16],40
same,"Plant response rating, Kochia",kochia (Kochia scoparia); [13],90
same,"Plant response rating, Kochia",kochia (Kochia scoparia); [14],100
same,"Plant response rating, Kochia",kochia (Kochia scoparia); [15],100
same,Kochia plant response rating,kochia (Kochia scoparia); [16],100
same,"Plant response rating, Ragweed",[2]; [13],0
same,"Plant response rating, Ragweed",[2]; [14],50
same,"Plant response rating, Ragweed",[2]; [15],20
same,Ragweed plant response rating,[2]; [16],20
same,pest or weed control at 250 g/ha,[3],45%
same,pest or weed control at 250 g/ha,[4],95%
same,pest or weed control at 250 g/ha,[5],90%
same,plant injury at 250 g/ha,rice (Oryza sativa),35%
same,pest or weed control at 31 g/ha,"[6]; post-emergence, Postemergence, scale 0 to 100 (0 no effect, 100 complete control), read-out: Pigweed plant response rating",95%
same,pest or weed control at 62 g/ha,[6]; [17],98%
same,pest or weed control at 125 g/ha,[6]; [17],98%
same,pest or weed control at 125 g/ha,"[6]; pre-emergence, Preemergence, read-out: Plant response rating (scale 0 to 100), Pigweed",100%
same,pest or weed control at 16 g/ha,"[6]; pre-emergence, Preemergence, 16 g ai/ha, scale 0 to 100 (0 no effect, 100 complete control), read-out: Plant response rating, Pigweed",100%
same,pest or weed control at 31 g/ha,[6]; [18],100%
same,pest or weed control at 62 g/ha,[6]; [18],100%
same,pest or weed control at 16 g/ha,[7]; [19],15%
same,pest or weed control at 31 g/ha,[7]; [19],20%
same,pest or weed control at 62 g/ha,[7]; [20],25%
same,pest or weed control at 125 g/ha,[7]; [20],80%
same,pest or weed control at 125 g/ha,"[7]; pre-emergence, Preemergence, read-out: Plant response rating (scale 0 to 100), Blackgrass",95%
same,pest or weed control at 16 g/ha,[7]; [21],15%
same,pest or weed control at 31 g/ha,[7]; [21],90%
same,pest or weed control at 62 g/ha,[7]; [21],95%
same,pest or weed control at 16 g/ha,[8]; [22],5%
same,pest or weed control at 31 g/ha,[8]; [22],5%
same,pest or weed control at 62 g/ha,[8]; [23],10%
same,pest or weed control at 125 g/ha,[8]; [23],30%
same,pest or weed control at 125 g/ha,"[8]; pre-emergence, Preemergence, read-out: Plant response rating (scale 0 to 100), Barnyardgrass",100%
same,pest or weed control at 16 g/ha,[8]; [24],65%
same,pest or weed control at 31 g/ha,[8]; [24],85%
same,pest or weed control at 62 g/ha,[8]; [24],85%
same,pest or weed control at 31 g/ha,"[9]; post-emergence, Postemergence, scale 0 to 100 (0 no effect, 100 complete control), read-out: Velvetleaf plant response rating",70%
same,pest or weed control at 62 g/ha,[9]; [25],75%
same,pest or weed control at 125 g/ha,[9]; [25],80%
same,pest or weed control at 125 g/ha,"[9]; pre-emergence, Preemergence, read-out: Plant response rating (scale 0 to 100), Velvetleaf",100%
same,pest or weed control at 16 g/ha,"[9]; pre-emergence, Preemergence, 16 g ai/ha, scale 0 to 100 (0 no effect, 100 complete control), read-out: Plant response rating, Velvetleaf",90%
same,pest or weed control at 31 g/ha,[9]; [26],100%
same,pest or weed control at 62 g/ha,[9]; [26],100%
same,pest or weed control at 31 g/ha,"[10]; post-emergence, Postemergence, scale 0 to 100 (0 no effect, 100 complete control), read-out: Johnsongrass plant response rating",5%
same,pest or weed control at 62 g/ha,[10]; [27],5%
same,pest or weed control at 125 g/ha,[10]; [27],40%
same,pest or weed control at 125 g/ha,"[10]; pre-emergence, Preemergence, read-out: Plant response rating (scale 0 to 100), Johnsongrass",95%
same,pest or weed control at 16 g/ha,"[10]; pre-emergence, Preemergence, 16 g ai/ha, scale 0 to 100 (0 no effect, 100 complete control), read-out: Plant response rating, Johnsongrass",10%
same,pest or weed control at 31 g/ha,[10]; [28],75%
same,pest or weed control at 62 g/ha,[10]; [28],90%
same,pest or weed control at 16 g/ha,[11]; [29],5%
same,pest or weed control at 31 g/ha,[11]; [29],10%
same,pest or weed control at 62 g/ha,[11]; [30],20%
same,pest or weed control at 125 g/ha,[11]; [30],20%
same,pest or weed control at 125 g/ha,"[11]; pre-emergence, Preemergence, read-out: Plant response rating (scale 0 to 100), Foxtail, Giant",100%
same,pest or weed control at 16 g/ha,[11]; [31],85%
same,pest or weed control at 31 g/ha,[11]; [31],100%
same,pest or weed control at 62 g/ha,[11]; [31],100%
same,plant injury at 31 g/ha,"[12]; post-emergence, Postemergence, scale 0 to 100 (0 no effect, 100 complete control), read-out: Oilseed Rape plant response rating",70%
same,plant injury at 125 g/ha,"[12]; pre-emergence, Preemergence, 125 g ai/ha, read-out: Plant response rating (scale 0 to 100), Oilseed Rape",100%
same,plant injury at 16 g/ha,"[12]; pre-emergence, Preemergence, 16 g ai/ha, scale 0 to 100 (0 no effect, 100 complete control), read-out: Plant response rating, Oilseed Rape",40%
same,plant injury at 31 g/ha,"[12]; pre-emergence, Preemergence, scale 0 to 100 (0 no effect, 100 complete control), read-out: Plant response rating, Oilseed Rape",100%
same,plant injury at 62 g/ha,"[12]; pre-emergence, Preemergence, 62 g ai/ha, scale 0 to 100 (0 no effect, 100 complete control), read-out: Plant response rating, Oilseed Rape",100%
